Laboratory results taken from ChEMBL document CHEMBL5724914, “Linking interpersonal differences in gut microbiota composition and drug biotransformation activity” (2024).

Assays:
[1] = human gut metagenome, 24 h, 2 µM
[2] = human gut metagenome, 24 h, 2 µM; remark: listed apart in the source
[3] = human gut metagenome, 24 h, 2 µM; remark: listed apart in the source
[4] = (§1) The drug is tested on WLS-090 corresponding to human gut metagenome with ENA study accession number: PRJEB37062 and ENA sample accession number: ERS12561753 for biotransformation under anaerobic condition. The drug concentrations were measured over 9 timepoints collected between 0 and 24 hours of incubation by liquid-chromatography-coupled mass spectrometry (LC–MS); conditions: 2 µM
[5] = human gut metagenome, 24 h, 2 µM; remark: listed apart in the source
[6] = as §1, with “WLS-038” for “WLS-090”, “ERS12561745” for “ERS12561753”; conditions: 2 µM
[7] = human gut metagenome, 24 h, 2 µM; remark: listed apart in the source
[8] = as §1, with “WLS-086” for “WLS-090”, “ERS12561752” for “ERS12561753”; conditions: 2 µM
[9] = as §1, with “WLS-077” for “WLS-090”, “ERS12561750” for “ERS12561753”; conditions: 2 µM
Note: call rule not given here.

Row | SMILES | Bacterial Biotransformation [1] | Bacterial Biotransformation [2] | Bacterial Biotransformation [3] | Bacterial Biotransformation [4] | Bacterial Biotransformation [5] | Bacterial Biotransformation [6] | Bacterial Biotransformation [7] | Bacterial Biotransformation [8] | Bacterial Biotransformation [9]
1 | Cc1ccccc1N1C(=O)c2cc(S(N)(=O)=O)c(Cl)cc2NC1C (stereo unspecified) [METOLAZONE] | Compound NOT metabolized | Compound NOT metabolized | Compound NOT metabolized | Compound metabolized | Compound metabolized | Compound NOT metabolized | Compound metabolized | Compound metabolized | Compound NOT metabolized
2 | COCCc1ccc(OCC(O)CNC(C)C)cc1.COCCc1ccc(OCC(O)CNC(C)C)cc1.O=C(O)C(O)C(O)C(=O)O (stereo unspecified) [METOPROLOL TARTRATE] | Compound NOT metabolized | Compound NOT metabolized | Compound NOT metabolized | Compound metabolized | Compound metabolized | Compound NOT metabolized | Compound NOT metabolized | Compound metabolized | Compound NOT metabolized
3 | COc1c(C)c2c(c(O)c1C/C=C(\C)CCC(=O)OCCN1CCOCC1)C(=O)OC2 [MYCOPHENOLATE MOFETIL] | Compound NOT metabolized | Compound metabolized | Compound metabolized | Compound metabolized | Compound metabolized | Compound metabolized | Compound metabolized | Compound metabolized | Compound metabolized
4 | CCN(CC)CCOC(=O)C(Cc1cccc2ccccc12)CC1CCCO1.O=C(O)C(=O)O (stereo unspecified) [NAFRONYL OXALATE] | Compound metabolized | Compound metabolized | Compound metabolized | Compound metabolized | Compound metabolized | Compound metabolized | Compound NOT metabolized | Compound metabolized | Compound metabolized
5 | C=CCN1CC[C@]23c4c5ccc(O)c4O[C@H]2C(=O)CC[C@@]3(O)[C@H]1C5 [NALOXONE] | Compound NOT metabolized | Compound NOT metabolized | Compound NOT metabolized | Compound NOT metabolized | Compound NOT metabolized | Compound NOT metabolized | Compound NOT metabolized | Compound NOT metabolized | Compound NOT metabolized
6 | CCc1nn(CCCN2CCN(c3cccc(Cl)c3)CC2)c(=O)n1CCOc1ccccc1 [NEFAZODONE] | Compound metabolized | Compound metabolized | Compound metabolized | Compound metabolized | Compound metabolized | Compound metabolized | Compound NOT metabolized | Compound metabolized | Compound NOT metabolized
7 | CN1CCOC(c2ccccc2)c2ccccc2C1 (stereo unspecified) [NEFOPAM] | Compound NOT metabolized | Compound NOT metabolized | Compound metabolized | Compound metabolized | Compound metabolized | Compound NOT metabolized | Compound NOT metabolized | Compound metabolized | Compound NOT metabolized
8 | Cc1ccnc2c1NC(=O)c1cccnc1N2C1CC1 [NEVIRAPINE] | Compound NOT metabolized | Compound NOT metabolized | Compound metabolized | Compound metabolized | Compound metabolized | Compound NOT metabolized | Compound NOT metabolized | Compound metabolized | Compound NOT metabolized
9 | COc1ccc2c(c1OC)C(=O)O[C@@H]2[C@H]1c2c(cc3c(c2OC)OCO3)CCN1C [NOSCAPINE] | Compound NOT metabolized | Compound NOT metabolized | Compound NOT metabolized | Compound metabolized | Compound NOT metabolized | Compound NOT metabolized | Compound NOT metabolized | Compound metabolized | Compound metabolized
10 | CCCc1nc(C(C)(C)O)c(C(=O)OCc2oc(=O)oc2C)n1Cc1ccc(-c2ccccc2-c2nnn[nH]2)cc1 [OLMESARTAN MEDOXOMIL] | Compound metabolized | Compound metabolized | Compound metabolized | Compound NOT metabolized | Compound metabolized | Compound metabolized | Compound metabolized | Compound metabolized | Compound metabolized
11 | NC(=O)N1c2ccccc2CC(=O)c2ccccc21 [OXCARBAZEPINE] | Compound NOT metabolized | Compound NOT metabolized | Compound NOT metabolized | Compound NOT metabolized | Compound NOT metabolized | Compound NOT metabolized | Compound NOT metabolized | Compound NOT metabolized | Compound NOT metabolized
12 | CCN(CC)CC#CCOC(=O)C(O)(c1ccccc1)C1CCCCC1.Cl (stereo unspecified) [OXYBUTYNIN CHLORIDE] | Compound metabolized | Compound metabolized | Compound metabolized | Compound metabolized | Compound metabolized | Compound metabolized | Compound NOT metabolized | Compound metabolized | Compound metabolized
13 | Fc1ccc([C@@H]2CCNC[C@H]2COc2ccc3c(c2)OCO3)cc1 [PAROXETINE] | Compound NOT metabolized | Compound metabolized | Compound metabolized | Compound metabolized | Compound metabolized | Compound metabolized | Compound NOT metabolized | Compound metabolized | Compound NOT metabolized
14 | O=c1[nH]c2ccccc2n1C1CCN(CCCC(c2ccc(F)cc2)c2ccc(F)cc2)CC1 [PIMOZIDE] | Compound NOT metabolized | Compound metabolized | Compound metabolized | Compound metabolized | Compound metabolized | Compound metabolized | Compound NOT metabolized | Compound metabolized | Compound NOT metabolized
15 | COc1cc2nc(N3CCN(C(=O)c4ccco4)CC3)nc(N)c2cc1OC [PRAZOSIN] | Compound NOT metabolized | Compound NOT metabolized | Compound metabolized | Compound metabolized | Compound metabolized | Compound NOT metabolized | Compound NOT metabolized | Compound metabolized | Compound NOT metabolized
16 | CS(=O)(=O)O.OC(CCN1CCCCC1)(c1ccccc1)c1ccccc1 [PRIDINOL METHANESULFONATE] | Compound NOT metabolized | Compound NOT metabolized | Compound metabolized | Compound metabolized | Compound metabolized | Compound NOT metabolized | Compound metabolized | Compound metabolized | Compound NOT metabolized
17 | CC(CN1c2ccccc2Sc2ccccc21)N(C)C (stereo unspecified) [PROMETHAZINE] | Compound NOT metabolized | Compound NOT metabolized | Compound NOT metabolized | Compound metabolized | Compound metabolized | Compound metabolized | Compound NOT metabolized | Compound metabolized | Compound NOT metabolized
18 | OCCOCCN1CCN(C2=Nc3ccccc3Sc3ccccc32)CC1 [QUETIAPINE] | Compound NOT metabolized | Compound NOT metabolized | Compound metabolized | Compound metabolized | Compound metabolized | Compound NOT metabolized | Compound metabolized | Compound metabolized | Compound NOT metabolized
19 | CCC(=O)NCC[C@@H]1CCc2ccc3c(c21)CCO3 [RAMELTEON] | Compound metabolized | Compound metabolized | Compound metabolized | Compound metabolized | Compound metabolized | Compound metabolized | Compound NOT metabolized | Compound metabolized | Compound metabolized
